Experimental data taken from patent publication US8460669B2, “Compositions and methods for identifying response targets and treating flavivirus infection responses” (Academia Sinica, priority 2005, dated 2013).

T1: DC-SIGN (Homo sapiens, UniProt Q9NNX6)
T1 construct: The extracellular domains of lectin receptors, TREMs and TLTs were cloned by the reverse-transcriptase polymerase chain reaction (RT-PCR); made in house; host or cells: 293-F (FreeStyle 293) cells
T1 sequence (Q9NNX6 59-404 limits assumed): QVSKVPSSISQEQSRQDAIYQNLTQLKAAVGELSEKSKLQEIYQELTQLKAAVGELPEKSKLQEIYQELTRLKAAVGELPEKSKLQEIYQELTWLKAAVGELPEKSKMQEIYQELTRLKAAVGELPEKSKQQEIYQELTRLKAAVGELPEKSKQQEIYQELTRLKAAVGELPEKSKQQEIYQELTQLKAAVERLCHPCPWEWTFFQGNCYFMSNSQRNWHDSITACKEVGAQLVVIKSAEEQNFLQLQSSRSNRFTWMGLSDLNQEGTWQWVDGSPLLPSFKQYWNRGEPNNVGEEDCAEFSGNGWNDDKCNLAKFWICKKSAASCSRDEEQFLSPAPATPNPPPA

T2: MMR.Fc (Homo sapiens, UniProt P22897)
T2 construct: The extracellular domains of lectin receptors, TREMs and TLTs were cloned by the reverse-transcriptase polymerase chain reaction (RT-PCR); made in house; host or cells: 293-F (FreeStyle 293) cells
T2 sequence (P22897 19-1389 limits assumed): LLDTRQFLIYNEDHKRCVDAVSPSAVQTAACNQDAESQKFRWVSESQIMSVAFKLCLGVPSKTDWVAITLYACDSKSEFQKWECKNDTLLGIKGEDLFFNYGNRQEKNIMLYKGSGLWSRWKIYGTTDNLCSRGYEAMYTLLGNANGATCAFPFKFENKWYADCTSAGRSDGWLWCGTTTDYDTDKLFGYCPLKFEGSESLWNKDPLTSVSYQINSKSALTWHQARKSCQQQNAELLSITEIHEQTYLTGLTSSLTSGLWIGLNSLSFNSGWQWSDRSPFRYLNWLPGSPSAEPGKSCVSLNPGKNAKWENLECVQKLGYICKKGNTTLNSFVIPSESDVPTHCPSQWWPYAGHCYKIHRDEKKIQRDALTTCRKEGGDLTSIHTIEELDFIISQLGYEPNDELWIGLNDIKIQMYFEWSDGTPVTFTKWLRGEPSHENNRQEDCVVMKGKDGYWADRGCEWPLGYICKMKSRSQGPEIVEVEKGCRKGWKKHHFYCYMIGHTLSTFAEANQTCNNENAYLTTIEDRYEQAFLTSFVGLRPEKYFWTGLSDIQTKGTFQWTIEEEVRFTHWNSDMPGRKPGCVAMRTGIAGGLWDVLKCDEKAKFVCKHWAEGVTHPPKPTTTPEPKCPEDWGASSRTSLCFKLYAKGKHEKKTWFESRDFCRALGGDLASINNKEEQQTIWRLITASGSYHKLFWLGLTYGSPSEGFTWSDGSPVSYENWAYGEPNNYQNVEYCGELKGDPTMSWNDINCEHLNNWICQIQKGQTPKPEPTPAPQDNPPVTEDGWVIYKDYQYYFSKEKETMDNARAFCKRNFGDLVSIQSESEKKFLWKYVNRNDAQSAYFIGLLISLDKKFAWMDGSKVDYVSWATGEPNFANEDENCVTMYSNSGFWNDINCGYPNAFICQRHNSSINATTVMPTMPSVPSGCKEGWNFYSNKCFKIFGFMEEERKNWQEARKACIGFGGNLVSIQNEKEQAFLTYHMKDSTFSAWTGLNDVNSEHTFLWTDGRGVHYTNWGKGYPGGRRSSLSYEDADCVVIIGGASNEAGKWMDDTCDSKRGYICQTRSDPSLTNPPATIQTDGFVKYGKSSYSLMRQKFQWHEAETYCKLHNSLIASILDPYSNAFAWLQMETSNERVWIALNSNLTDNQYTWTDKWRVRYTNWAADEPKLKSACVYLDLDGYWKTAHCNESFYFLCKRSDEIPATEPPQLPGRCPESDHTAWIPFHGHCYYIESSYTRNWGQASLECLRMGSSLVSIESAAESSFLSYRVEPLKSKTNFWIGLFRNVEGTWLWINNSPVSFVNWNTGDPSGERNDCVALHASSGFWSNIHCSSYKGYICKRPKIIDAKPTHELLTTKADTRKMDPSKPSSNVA

T3: DC-SIGN (Homo sapiens, UniProt Q9NNX6)
T3 construct: expressed in transfected cells; host or cells: 293T cells
T3 sequence (Q9NNX6 1-404): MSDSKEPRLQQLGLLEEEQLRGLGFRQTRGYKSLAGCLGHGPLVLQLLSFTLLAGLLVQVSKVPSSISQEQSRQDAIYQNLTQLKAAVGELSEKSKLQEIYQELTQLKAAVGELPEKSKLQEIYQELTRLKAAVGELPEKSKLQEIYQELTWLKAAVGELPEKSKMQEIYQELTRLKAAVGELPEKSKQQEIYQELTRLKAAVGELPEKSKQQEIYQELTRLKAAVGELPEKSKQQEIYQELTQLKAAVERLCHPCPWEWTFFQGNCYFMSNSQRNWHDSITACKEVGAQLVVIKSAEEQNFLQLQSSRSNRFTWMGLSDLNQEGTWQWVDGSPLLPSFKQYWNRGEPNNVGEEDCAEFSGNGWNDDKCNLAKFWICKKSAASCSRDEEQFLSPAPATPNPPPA

B1: sDVLR1/CLEC5A: alternatively spliced form of human DVLR1/CLEC5A (aa 43-65 deleted), SEQ ID NO: 73 (protein)
chain: MNWHMIISGLIVVVLKVVGMTLFLLYFPQIFNKSNDGFTTTRSYGTVCPKDWEFYQARCFFLSTSESSWNESRDFCKGKGSTLAIVNTPEKLFLQDITDAEKYFIGLIYHREEKRWRWINNSVFNGNVTNQNQNFNCATIGLTKTFDAASCDISYRRICEKNAK
modifications: Human

Assays:
Langerin = target: T4, Langerin (Homo sapiens, UniProt Q9UJ71); experiment: Sugar competition EIA, Fc.Langerin binding to GLPS-F3; details: sugar 1 mg/ml
T4 construct: The extracellular domains of lectin receptors, TREMs and TLTs were cloned by the reverse-transcriptase polymerase chain reaction (RT-PCR); made in house; host or cells: 293-F (FreeStyle 293) cells
Description: (§1) The interaction between GLPS-F3 and receptor.Fc was then tested. Unbiotinylated GLPS-F3 was immobilized at 100 ng/well as described above, and 100 μL receptor.Fc fusion protein (1 μg/ml in 2 mM MgCl2/2 mM CaCl2/1% BSA/TBST) was added into each well and incubated for 1 hour at room temperature. After washing with TBST, wells were incubated with peroxidase-conjugated goat anti-human IgG Ab (1:5000 dilution, Jackson ImmunoResearch Laboratories) in blocking buffer at room temperature for 30 min. Wells were incubated with 100 μL TMB substrate for 15 min after TBST washing and read at 450 nm in a Fusion plate reader (Perkin Elmer). The results were normalized with respect to Fc.Dectin-1 binding (Dectin-1 is a known lectin receptor that binds to β-1,3-glucan which is the backbone found in GLPS-F3). FIG. 6B depicts in graphical form the affinity of each receptor for GLPS-F3 relative to Dectin-1. […] There was also weaker but positive GLPS-F3 binding ability (25-50% binding intensity compared to Fc.dectin-1) found in Fc.NKG2D, Fc.MINCLE, Fc.mKCR, DCAL1.Fc, DEC205.Fc, Endo180.Fc and NKp30(NCR3).Fc.
(§2) To understand the interaction of GLPS-F3 with specific innate immunity receptors, the polysaccharides mannan and β-glucan and the monosaccharides D-mannose (Man), D-glucose (Glc), N-acetyl-glucosamine (GlcNAc), D-galactose (Gal), N-acetyl-galactosamine (GalNAc), L-fucose (Fuc) and sialic acid, were used in a competition assay. […] The assays were carried out as in Example 9, with the addition of 1 mg/ml of each polysaccharide or monosaccharide.

DC-SIGN [1] = target: T1, DC-SIGN; experiment: Sugar competition EIA, Fc.DC-SIGN binding to GLPS-F3; details: sugar 1 mg/ml
Description: as §1, §2

TLR4.Fc = target: T5, TLR4.Fc (Homo sapiens, UniProt O00206); experiment: Sugar competition EIA, TLR4.Fc binding to GLPS-F3; details: sugar 1 mg/ml
T5 construct: The extracellular domains of several innate immunity receptors from immune cells were cloned by reverse-transcription polymerase chain reaction (RT-PCR); made in house; host or cells: 293-F (FreeStyle 293) cells
Description: as §1, §2

MMR.Fc = target: T2, MMR.Fc; experiment: Sugar competition EIA, MMR.Fc binding to GLPS-F3; details: sugar 1 mg/ml
Description: as §1, §2

DC-SIGN [2] = target: T3, DC-SIGN; experiment: Sugar competition, biotinylated DV binding to DC-SIGN-transfected 293T cells; type: cell-based; details: flow cytometry
Description: In FIG. 16b, complexes of DV (5×10^6 PFU) with receptor.Fc (5 μg) were immunoprecipitated and detected on westerns with mAb to DV envelope (E) protein. […] FIGS. 16d and 16e show sugar competition assays wherein both DC-SIGN (CLEC4L) and DVLR1/CLEC5A increase DV binding to human 293T cells (FIG. 16d), while addition of sugars inhibits biotinylated DV binding to DC-SIGN- (left panel) or DLVR1/CLEC5A- (right panel) transfected 293T cells in a dose-dependent manner as determined by flow cytometry (FIG. 16e). According to FIG. 16e, MFI represents mean fluorescence intensity. Units (U) for monosaccharide (mannose and fucose) and polysaccharide (mannan) are mM and mg/ml, respectively. […] Data are expressed as the mean±s.d. of three independent experiments. Two-tailed, Student's t-tests were performed.
There are two conserved N-linked glycosylation sites at Asn-67 and Asn-153 of E protein (Pokidysheva, E. et al., Cell 124:485-93 (2006)), and the attached glycans (with terminal fucose and mannose) have been implicated in cellular attachment and viral entry (Modis, Y. et al., J. Virol. 79:1223-1231 (2005)). To investigate the participation of glycans in the association of DVLR1/CLEC5A with DV, virions were incubated with fucose, mannose, or mannan; where the last two sugars are the ligands for DC-SIGN (Mitchell et al., J. Biol. Chem. 276: 28939-28945 ([…])).

Dengue virus = experiment: ELISA of receptor.Fc interaction with Dengue virus; type: binding; details: receptor.Fc 1 μg; DV 5×10^6
Description: One μg of each receptor.Fc fusion protein was coated onto microtiter plates overnight at 4° C. DV (5×10^6 particles) of strain 16681 (a DEN2 strain) in binding buffer (1% BSA, 2 mM CaCl2, 2 mM MgCl2, 50 mM Tris-HCl pH 7.5, 150 mM NaCl) was then added to the plates and the plates were incubated for 2 hours. After washing non-bound virus, a biotinylated anti-DEN2 envelope protein antibody (Wu et al., J Virol, 2002. 76(8): p. 3596-604) was applied to bind to the virus for 1 hour. Diluted horseradish peroxidase-conjugated streptavidin was then added to the plates, followed by a 1 hour incubation. TMB substrate was then added and the plates were read using an ELISA reader at OD450 nm.
The microtiter plate assay was repeated in the presence of EDTA (10 mM) to chelate Ca^++ cations.
The microtiter plate assay was also repeated for DVLR1/CLEC5A.Fc fusion protein with DV particles (5×10^6) that had been 1) preincubated with 500 U of the glycosidase PNGaseF (New England Biolabs, Inc.) overnight at 37° C.; or 2) treated with dithiothreitol (DTTI) (0.1M); or 3) incubated at 95° C. for 5 minutes; or 4) UV irradiated for 5 minutes. The results are shown in FIG. 8D (asterisks indicate where the binding affinity of DVLR1/CLEC5A.Fc fusion protein is altered by modification of the virus relative to non-treated virus; ** p<0.01, *** p<0.001, Student's t test). […]

JEV = experiment: ELISA of DVLR1/CLEC5A.Fc interaction with JEV; type: binding, Japanese encephamyelitis virus; details: 1 μg; JEV 5×10^6 PFU
Description: Like with DV, JEV follows a similar virus infection response pattern, which is believed to be the same or similar in all flaviviruses. […] (1 μg), with JEV and DV (5×10^6 PFU), respectively, were determined by ELISA. DV interacts with human DVLR1/CLEC5A (187 amino acid in length) SEQ ID NO: 72, but not the alternatively spliced form sDVLR1/CLEC5A (aa 43-65 is deleted). SEQ ID NO: 73. […] DAP12 in DV-infected macrophages were precipitated by anti-DAP12 mAb, blotted to nitrocellulose paper after fractionation on SDS-PAGE, followed by incubation with antibodies against phosphotyrosine and DAP12, respectively. JEV-induced DAP12 phosphorylation (m.o.i.=5) is inhibited by pLL3.7/DVLR1/CLEC5A. […] JEV-induced TNF-α secretion is inhibited by […] mAb (right). Data are expressed as the mean±s.d. of three independent experiments.

T4 sequence (Q9UJ71 65-328 limits assumed): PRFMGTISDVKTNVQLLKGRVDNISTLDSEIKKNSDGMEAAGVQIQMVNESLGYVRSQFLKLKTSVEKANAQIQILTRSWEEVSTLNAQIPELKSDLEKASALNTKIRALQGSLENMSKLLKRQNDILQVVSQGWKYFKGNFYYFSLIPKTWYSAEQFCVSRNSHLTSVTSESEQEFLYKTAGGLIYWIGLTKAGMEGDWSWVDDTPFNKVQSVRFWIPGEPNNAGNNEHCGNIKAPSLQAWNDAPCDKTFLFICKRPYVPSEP
T5 sequence (O00206 24-631 limits assumed): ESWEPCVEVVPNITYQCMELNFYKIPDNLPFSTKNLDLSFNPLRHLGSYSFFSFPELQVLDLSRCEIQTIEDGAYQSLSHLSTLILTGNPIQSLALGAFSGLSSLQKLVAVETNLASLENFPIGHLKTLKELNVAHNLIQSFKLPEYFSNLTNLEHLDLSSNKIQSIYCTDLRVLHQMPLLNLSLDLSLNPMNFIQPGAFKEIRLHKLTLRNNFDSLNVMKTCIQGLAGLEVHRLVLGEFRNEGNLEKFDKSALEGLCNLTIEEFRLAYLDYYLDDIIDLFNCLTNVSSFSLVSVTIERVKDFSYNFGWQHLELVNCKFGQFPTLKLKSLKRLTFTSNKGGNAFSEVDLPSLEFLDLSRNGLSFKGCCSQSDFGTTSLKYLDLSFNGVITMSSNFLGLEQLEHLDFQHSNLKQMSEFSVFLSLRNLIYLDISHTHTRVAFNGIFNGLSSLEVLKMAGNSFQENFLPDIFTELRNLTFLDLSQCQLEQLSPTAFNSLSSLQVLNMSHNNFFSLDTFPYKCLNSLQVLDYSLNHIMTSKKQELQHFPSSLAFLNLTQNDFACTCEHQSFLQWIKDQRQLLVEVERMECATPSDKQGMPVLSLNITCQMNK

Molecule	inhibition of interaction between Fc.Langerin and GLPS-F3 (Langerin)	inhibition of binding of Fc.DC-SIGN to GLPS-F3 (DC-SIGN [1])	Percentage of binding of TLR4.Fc to GLPS-F3 relative to binding in absence of sugar competitor (TLR4.Fc)	inhibition of interaction between GLPS-F3 and MMR.Fc (MMR.Fc)	inhibition of the DC-SIGN-DV interaction (DC-SIGN [2])	interaction of receptor.Fc with Dengue virus (ELISA) (Dengue virus)	interaction with JEV (ELISA) (JEV)
O=C[C@@H](O)[C@@H](O)[C@H](O)[C@H](O)CO [Man, D-mannose]	26%	72%	89 ± 2.6%	87%	dose-dependent inhibition		
B1						not	only interacts
